These results are taken from patent publication US20200172483A1, “HETEROCYCLIC SMALL MOLECULE MODULATORS OF HUMAN STING” (Curadev Pharma Limited, priority 2017, published 2020).

What is called EC50 is the concentration at which the effect is half-maximal.

Some results are limits rather than exact numbers.

T1 sequence (Q86WV6 whole entry H232R): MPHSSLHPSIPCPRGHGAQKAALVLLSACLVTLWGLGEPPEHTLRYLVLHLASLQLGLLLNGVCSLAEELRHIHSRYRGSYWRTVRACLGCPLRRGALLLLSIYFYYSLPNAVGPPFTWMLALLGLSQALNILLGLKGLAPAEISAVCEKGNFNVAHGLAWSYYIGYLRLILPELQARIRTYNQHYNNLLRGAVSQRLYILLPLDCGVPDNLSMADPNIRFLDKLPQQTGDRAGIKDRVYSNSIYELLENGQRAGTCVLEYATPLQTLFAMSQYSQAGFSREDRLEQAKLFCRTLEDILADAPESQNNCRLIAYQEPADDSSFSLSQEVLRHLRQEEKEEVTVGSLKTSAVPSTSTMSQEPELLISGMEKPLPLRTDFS

The test has as its target T1, WT/R232 STING protein (Homo sapiens, UniProt Q86WV6, H232R).
T1 construct: host or cells: HEK293T
Nature of the test: Luciferase reporter assay in HEK293T-hSTING-Luciferase cells (R232). Format: cell-based. Conditions: 20 hr stimulation, EC50 range. The source says: • a) Stable STING expressing cells—Stable HEK293T STING-expressing cell lines were generated using plasmids purchased from Invivogen, CA, USA, that contain STING cDNA cloned into the pUNO-1 vector under hEF1-HTLV promoter and containing the Blasticidin selection cassette. The plasmids hSTING (R232), hSTING (H232), hSTING (HAQ) were directly procured from Invivogen while hSTING (AQ) and hSTING (Q) were derived from hSTING (HAQ) and hSTING (R232) plasmids respectively by using a PCR based site directed mutagenesis method. These vectors were individually transfected into HEK293T cells using Lipofectamine (Invitrogen) and transfected cells were selected under Blasticidin selection. These transfected cells were further subjected to clonal selection using the limiting dilution method to obtain clonally pure populations of HEK cells transfected with each of the above mentioned human STING variants. Only those clones were selected in which ligand independent activation of STING was minimal. • b) Stable Luciferase reporter gene expressing cells—Stable HEK293T Luciferase reporter gene expressing cell lines were generated using pCDNA4 plasmids under an IRF-inducible promoter. This promoter is comprised of five tandem interferon-stimulated response elements (ISRE) fused to an ISG54 minimal promoter. This vector was transfected into HEK293T cells using Lipofectamine (Invitrogen) and transfected cells were selected under Zeocin selection. These transfected cells were further subjected to clonal selection using the limiting dilution method to obtain clonally pure populations of HEK cells transfected the Luciferase reporter construct. Only those clones were selected in which ligand independent induction of luciferase was minimal.
5×10^5 clonally selected HEK293T-hSTING-Luciferase cells were seeded in 384-well plates in growth medium and stimulated with novel compounds. After 20 hr of stimulation supernatant were removed and secretary reporter gene activity were measured using the Quanti-Luc detection system (Invivogen) on a Spectramax i3X luminometer.
All compounds were first tested in a primary screen using WT/R232 STING protein to obtain a ‘fold-induction’ over baseline levels of protein activity.
A general note: A reporter such as luciferase makes a cellular process visible.
Compound `CC1(C)C(=O)N(Cc2ccccn2)c2cc(C(=O)NCc3c(F)cc(F)cc3F)ccc21` [Example 99, 3,3-dimethyl-2-oxo-1-(pyridin-2-ylmethyl)-N-(2,4,6-trifluorobenzyl)indoline-6-carboxamide] had an EC50 of 1 to 10 µM. The same measure for `CC1(C)C(=O)N(Cc2nc3ccccc3o2)c2cc(C(=O)NCc3c(F)cc(F)cc3F)ccc21` [Example 101, 1-(benzo[d]oxazol-2-ylmethyl)-3,3-dimethyl-2-oxo-N-(2,4,6-trifluorobenzyl)indoline-6-carboxamide]: above 10 µM; for `CC1(C)C(=O)N(Cc2cccc3c2OC(F)(F)O3)c2cc(C(=O)NCc3c(F)cc(F)cc3F)ccc21` [Example 105, 1-((2,2-difluorobenzo[d][1,3]dioxol-4-yl)methyl)-3,3-dimethyl-2-oxo-N-(2,4,6-trifluorobenzyl)indoline-6-carboxamide]: 1 to 10 µM; for `Cc1cccc(C)c1CN1C(=O)C(C)(C)c2ccc(C(=O)NCc3c(F)cc(F)cc3F)cc21` [Example 110, 1-(2,6-dimethylbenzyl)-3,3-dimethyl-2-oxo-N-(2,4,6-trifluorobenzyl)indoline-6-carboxamide]: 1 to 10 µM. With `Cn1nc(C(F)(F)F)cc1CN1C(=O)C(C)(C)c2ccc(C(=O)NCc3c(F)cc(F)cc3F)cc21` [Example 113, 3,3-dimethyl-1-((1-methyl-3-(trifluoromethyl)-1H-pyrazol-5-yl)methyl)-2-oxo-N-(2,4,6-trifluorobenzyl)indoline-6-carboxamide] the figure was 1 to 10 µM; with `CC1(C)C(=O)N(Cc2ccc(C(N)=O)cc2)c2cc(C(=O)NCc3c(F)cc(F)cc3F)ccc21` [Example 120, 1-(4-carbamoylbenzyl)-3,3-dimethyl-2-oxo-N-(2,4,6-trifluorobenzyl)indoline-6-carboxamide], above 10 µM.

`CC1(C)C(=O)N(Cc2ccc(C(N)=O)cc2F)c2cc(C(=O)NCc3c(F)cc(F)cc3F)ccc21` [Example 121, 1-(4-carbamoyl-2-fluorobenzyl)-3,3-dimethyl-2-oxo-N-(2,4,6-trifluorobenzyl)indoline-6-carboxamide] registered a concentration for a half-maximal effect (EC50) of 1 to 10 µM. `Cc1ccc(CNC(=O)c2ccc3c(c2)N(Cc2ccc(F)c(F)c2)C(=O)C3(C)C)o1` [Example 122, 1-(3,4-difluorobenzyl)-3,3-dimethyl-N-((5-methylfuran-2-yl)methyl)-2-oxoindoline-6-carboxamide] showed an EC50 of 1 to 10 µM. `Cc1ccc(CNC(=O)c2ccc3c(c2)N(C(C)c2ccc(F)cc2)C(=O)C3(C)C)o1` (stereo not shown) [Example 123, 1-(1-(4-fluorophenyl)ethyl)-3,3-dimethyl-N-((5-methylfuran-2-yl)methyl)-2-oxoindoline-6-carboxamide] showed an EC50 of 1 to 10 µM.

Compound `Cc1ccc(CN2C(=O)C(C)(C)c3ccc(C(=O)NCc4cc(F)cc(F)c4)cc32)o1` [Example 125, N-(3,5-difluorobenzyl)-3,3-dimethyl-1-((5-methylfuran-2-yl)methyl)-2-oxoindoline-6-carboxamide] registered a 50% effective concentration (EC50) above 10 µM.

Consider `Cc1cnc(CNC(=O)c2ccc3c(c2)N(Cc2c(F)cccc2Cl)C(=O)C3(C)C)o1` [Example 126, 1-(2-chloro-6-fluorobenzyl)-3,3-dimethyl-N-((5-methyloxazol-2-yl)methyl)-2-oxoindoline-6-carboxamide], for which the concentration for a half-maximal effect (EC50) fell in the range of 1 to 10 µM. With `Cn1cccc1CNC(=O)c1ccc2c(c1)N(Cc1c(F)cccc1Cl)C(=O)C2(C)C` [Example 127, 1-(2-chloro-6-fluorobenzyl)-3,3-dimethyl-N-((1-methyl-1H-pyrrol-2-yl)methyl)-2-oxoindoline-6-carboxamide] the figure was above 10 µM; with `Cc1ncc(CN2C(=O)C(C)(C)c3ccc(C(=O)NCc4c(F)cc(F)cc4F)cc32)o1` [Example 128, 3,3-dimethyl-1-((2-methyloxazol-5-yl)methyl)-2-oxo-N-(2,4,6-trifluorobenzyl)indoline-6-carboxamide], above 10 µM. As to `Cc1ccc(-c2nc(CN3C(=O)C(C)(C)c4ccc(C(=O)NCc5c(F)cc(F)cc5F)cc43)c(C)o2)cc1` [Example 129, 3,3-dimethyl-1-((5-methyl-2-(p-tolyl)oxazol-4-yl)methyl)-2-oxo-N-(2,4,6-trifluorobenzyl)indoline-6-carboxamide], the EC50 is above 10 µM. With `CC1(C)C(=O)N(Cc2cc3ccccc3o2)c2cc(C(=O)NCc3c(F)cc(F)cc3F)ccc21` [Example 131, 1-(benzofuran-2-ylmethyl)-3,3-dimethyl-2-oxo-N-(2,4,6-trifluorobenzyl)indoline-6-carboxamide] the figure was above 10 µM; with `CC1(C)CN(C(=O)c2c(F)cccc2Cl)c2cc(C(=O)NCc3ccco3)ccc21` [Example 132, 1-(2-chloro-6-fluorobenzoyl)-N-(furan-2-ylmethyl)-3,3-dimethylindoline-6-carboxamide], above 10 µM; with `O=C(NCc1ccco1)c1ccc2c(c1)N(Cc1ccccc1F)C(=O)C2(F)F` [Example 133, 3.3-Difluoro-1-(2-fluorobenzyl)-N-(furan-2-ylmethyl)-2-oxoindoline-6-carboxamide], above 10 µM.

As to `CC1(C)c2ccc(C(=O)NCc3c(F)cc(F)cc3F)cc2N(Cc2c(F)cccc2Cl)S1(=O)=O` [Example 134, 1-(2-Chloro-6-fluorobenzyl)-3,3-dimethyl-N-(2,4,6-trifluorobenzyl)-1,3-dihydrobenzo[c]isothiazole-6-carboxamide 2,2-dioxide], the concentration for a half-maximal effect (EC50) is above 10 µM. The same measure for `O=C(NCc1ccco1)c1ccc2c(c1)N(C(=O)c1c(F)cccc1Cl)CC2` [Example 135, 1-(2-chloro-6-fluorobenzoyl)-N-(furan-2-ylmethyl)indoline-6-carboxamide]: above 10 µM.

The compound `O=C(NCc1c(F)cc(F)cc1F)c1ccc2c(c1)N(Cc1cc(F)cc(F)c1)C(=O)C21CCCCC1` [Example 138] showed an EC50 above 10 µM. For `O=C(NCc1ccco1)c1ccc2c(c1)N(Cc1c(F)cccc1Cl)C(=O)C21CC1` [Example 139, 1′-(2-chloro-6-fluorobenzyl)-N-(furan-2-ylmethyl)-2′-oxospiro[cyclopropane-1,3′-indoline]-6′-carboxamide], the EC50 was above 10 µM.

`O=C(NCc1ccco1)c1ccc2c(c1)N(Cc1c(F)cccc1Cl)S(=O)(=O)C2` [Example 140, 1-(2-chloro-6-fluorobenzyl)-N-(furan-2-ylmethyl)-1,3-dihydrobenzo[c]isothiazole-6-carboxamide 2,2-dioxide] showed an EC50 above 10 µM.

The compound `O=C(NCc1c(F)cc(F)cc1F)c1ccc2c(c1)N(Cc1cc(F)cc(F)c1)C(=O)C2=O` [Example 141, 1-(3,5-Difluorobenzyl)-2,3-dioxo-N-(2,4,6-trifluorobenzyl)indoline-6-carboxamide] had an EC50 above 10 µM. With `O=C(NCc1c(F)cc(F)cc1F)c1ccc2c(c1)N(Cc1c(F)cccc1Cl)C(=O)C2=O` [Example 142, 1-(2-Chloro-6-fluorobenzyl)-2,3-dioxo-N-(2,4,6-trifluorobenzyl)indoline-6-carboxamide] the figure was above 10 µM; with `CC1(O)C(=O)N(Cc2c(F)cccc2Cl)c2cc(C(=O)NCc3c(F)cc(F)cc3F)ccc21` (stereo not shown) [Example 143, 1-(2-Chloro-6-fluorobenzyl)-3-hydroxy-3-methyl-2-oxo-N-(2,4,6-trifluorobenzyl)indoline-6-carboxamide], above 10 µM.
